Data reported in patent US8215314B2, “Photochemical tissue bonding” (The General Hospital Corporation, priority 2000, dated 2012).

Legend:
[1] = system: corneal incision, rabbit eyes ex vivo; assay: IOP required to produce fluid leakage from corneal incision (IOPL) after PTB, ex vivo; settings: for mean IOPL: 4.5 mM, 351 nm
Description: PTB can be used to seal or repair a tissue, e.g., a wound, e.g., a corneal wound. This example illustrates the experimental procedure designed to test the efficacy of PTB, as described herein, using mammalian corneas ex vivo. Experiments were performed according to the following procedure.
Rabbit eyes were received on ice (Pel-Freez Biologicals) approximately 17-24 hours after sacrifice and enucleation. The eyes were kept on ice and used the same day. The eye to be studied was mounted on a plastic-covered polystyrene block and fixed in position by needles inserted through the extraocular muscles into the polystyrene. The eye was then placed under a dissecting microscope (Reichert Scientific Instruments, Ill.) allowing visualization of the treated area during the entire procedure. A 27 G needle was inserted parallel to the iris, 2 mm anterior to the limbus into clear cornea, and positioned above the lens in the anterior chamber. The needle was connected to both a blood pressure transducer (Harvard Apparatus, Mass.) and a mini-infuser 400 (Bard Harvard) via a T coupler. The pressure transducer consists of a transducer element that is hard wired to an amplifier box and uses a semi-disposable dome with an integral silicone rubber membrane. Pressure inside the dome is transmitted through the membrane to a plastic button whose motion is translated to a voltage. The voltage generated by the transducer amplifier combination is proportional to the […] intraocular pressure (IOP). Signals from the transducer amplifier were recorded using a Macintosh G3 Power book equipped with a PCMICA (DAQCARD—1200) data acquisition card (National Instruments, Tex.). Data acquisition was controlled using programs written using the LabView 4 software package (National Instruments, Tex.). The voltage from the transducer and amplifier was converted to pressure by calibrating with a standing manometer.
Experiments on individual eyes were initiated by increasing the IOP to 30-40 mm Hg, using water infusion at a rate of 1 mL per minute. An incision was made in the cornea, 1 mm from the limbus and parallel to the iris, using a 3.5 mm angled keratome (Becton Dickinson Co.). For each eye the IOP required to produce fluid leakage from the incision (IOPL) was recorded pre- and post-PTB treatment. A photosensitizer, dissolved in phosphate buffer solution (PBS, pH 7.2, Gibco BRL) was applied to the walls of the incision using a Gastight, 50 μl syringe (Hamilton Co.) with a 27 G needle.
Irradiations employed a continuous wave (CW) argon-ion laser (Innova 100; Coherent, Inc., Palo Alto, Calif.) at 488 nm (for Fl and R-5-P), 514.5 nm (for RB) or 351 nm (for NHPT). An argon-ion-pumped dye laser (CR-599; Coherent) with 4-dicyanomethylene-2-methyl-6-(p-dimethylaminostyryl)-4H-pyran dye (Exciton, Inc., Dayton, Ohio) was used for irradiation at 661 nm (for MB). Laser light was coupled into a 1 mm diameter quartz fiber and a 1 cm diameter spot on the tissue was created by using a combination of 1 and 2 inch focal length, S1-UV grade fused silica, biconvex lenses (Esco Products), mounted in a SM1 series cage assembly (Thorlabs, N.J.). The 1 cm diameter circular spot was sufficient to cover the entire incision and the optics were adjusted so that the laser light was incident on the cornea at an angle approximately 45° to the plane of the incision. Dose response curves were obtained by varying the duration of the irradiation at a constant irradiance. In separate experiments the effects of laser irradiance were investigated by comparison of the same delivered dose using different irradiances. The doses used ranged from 124 to 1524 J/cm^2 and the irradiances used were 0.64, 1.27, 2.55 and 3.86 W/cm^2. The laser exposure time varied from 33 seconds for the lowest dose using the highest irradiance to 26 minutes, 27 seconds for the highest dose using the lowest irradiance. The IOPL was recorded immediately following treatment. […]

[2] = Absorption maxima and absorption coefficients of photosensitizers; type: physicochemical; settings: for absorption coefficient at the laser wavelength used: RB at 514 nm, Fl at 488 nm, MB at 661 nm, R-5-P at 488 nm, N-HPT at 351 nm
From the text: The photosensitizers were used as received with the exception of N-HPT which was recrystallized twice from aqueous ethanol before use.

[3] = system: corneal incision, rabbit eyes ex vivo; assay: IOP required to produce fluid leakage from corneal incision (IOPL) after PTB, ex vivo; settings: 488 nm

| SMILES | post-treatment IOPL ([1]; MB 3 mM, 661 nm, 0.64 W/cm^2, doses 508, 762 and 1016 J/cm^2) | absorption maximum [2] | absorption coefficient at the laser wavelength used [2] | mean IOPL ([1]; 0.64 W/cm2, 254 J/cm2) | mean IOPL ([1]; 0.64 W/cm2, 508 J/cm2) | IOPL ([3]; 0.6 mM Fl, 762 J/cm^2 at 3.82 W/cm^2) | post PTB treatment IOPL value ([3]; 11 mM R-5-P, 762 and 1016 J/cm^2, 1.27-3.82 W/cm^2, p<0.05) |
| --- | --- | --- | --- | --- | --- | --- | --- |
| CN(C)c1ccc2nc3ccc(=[N+](C)C)cc-3sc2c1 [MB, methylene blue] | did not increase | 664 nm | 15600 dm^3 mol^−1 cm^−1 |  |  |  |  |
| On1ccccc1=S [N-HPT, N-hydroxypyridine-2-(1H)-thione] |  | 314 nm | 2110 dm^3 mol^−1 cm^−1 | 60±23 mm Hg | 126±40 mm Hg |  |  |
| O=C1OC2(c3ccc(O)cc3Oc3cc(O)ccc32)c2ccccc21 [Fl, fluorescein] |  |  |  |  |  | 116±40 mm Hg |  |
| Cc1cc2nc3c(=O)[nH]c(=O)nc-3n(C[C@H](O)[C@H](O)[C@H](O)COP(=O)(O)O)c2cc1C [R-5-P, riboflavin-5-phosphate] |  | 445 nm | 4330 dm^3 mol^−1 cm^−1 |  |  |  | significantly increased |
